Values joined by “and” are separate entries in the source; they are usually repeats but may differ in a detail not shown here. Identical values can stand only once. Like-named read-outs stand apart in the source and are kept apart here.
Key:
[1] = target: T1, human α2AAR (Homo sapiens (Human), UniProt P08913); assay: β-arrestin-2 recruitment, BRET biosensor assay in HEK293T cells; conditions: HEK-293T
Procedure: (§5) Bioluminescense resonance energy transfer. G protein mediated activation of human α2AAR and D2long was monitored with Gαi1-RLucII (71, 72) together with Gβ1 and Gγ1-GFP10. Arrestin recruitment was performed by enhanced bystander BRET using CAAX-rGFP and β-arrestin-2-RLucII as biosensors (all biosensors are provided from M. Bouvier, Université de Montréal, Canada) (71, 73) in the presence of GRK2 as described (66, 74). In brief, HEK293T cells were transfected with a total amount of 3.3 μg DNA per 10^6 cells using linear polyethyleneimine (PEI, Polysciences, 3:1 PEI:DNA ratio) and transferred into 96-well half-area plates (Greiner, Frickenhausen, Germany) at a density of 10,000 cells per well and incubated for 48 hrs. Medium was exchanged with PBS (Hank's balanced salt solution) and cells were stimulated with ligands at 37° C. for 10 min for Gαi stimulation or arrestin recruitment, respectively.

[2] = target: T2, ALPHA-2A ADRENERGIC RECEPTOR (Homo sapiens (Human), UniProt P08913); assay: Gi recruitment (G protein); type: cell-based; conditions: for functional classification (agonist / weak agonist): Table 6, result in words
T2 sequence (P08913 whole entry): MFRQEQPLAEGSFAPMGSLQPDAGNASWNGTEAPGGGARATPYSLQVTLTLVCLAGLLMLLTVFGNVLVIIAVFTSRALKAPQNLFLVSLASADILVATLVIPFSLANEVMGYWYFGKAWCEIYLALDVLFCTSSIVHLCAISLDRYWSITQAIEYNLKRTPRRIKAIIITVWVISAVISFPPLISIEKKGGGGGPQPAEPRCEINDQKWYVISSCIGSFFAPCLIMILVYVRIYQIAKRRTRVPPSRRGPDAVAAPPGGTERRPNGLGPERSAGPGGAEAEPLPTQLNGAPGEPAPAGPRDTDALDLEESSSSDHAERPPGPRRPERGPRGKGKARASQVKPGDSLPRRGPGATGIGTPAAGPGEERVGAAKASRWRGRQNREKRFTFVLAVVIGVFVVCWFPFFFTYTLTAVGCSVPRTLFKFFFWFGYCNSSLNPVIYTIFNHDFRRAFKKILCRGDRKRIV

[3] = target: T1, human α2AAR; assay: Radioligand competition binding to human α2AAR (HEK293T membranes, [3H]RX82,1002); conditions: human α2AAR
[4] = target: T1, human α2AAR; assay: Gαi G protein activation, BRET biosensor assay in HEK293T cells; conditions: for Emax: HEK-293T
Procedure: as §5

[5] = test system: mice; assay: Rotarod motor test (motor impairment and sedation); type: in vivo; conditions: equi-analgesic doses (DEX: higher doses)
[6] = target: T1, human α2AAR; assay: DiscoverX HitHunter cAMP G-protein activation assay; conditions: read-out: Gi/o Emax
Procedure: DiscoverX HitHunter cAMP G-protein activation assay. […] Freezer stock cAMP Hunter cell lines were expanded, then seeded in a total volume of 20 uL into white walled, 384-well microplates and incubated at 37° C. prior to testing. For agonist determination, cells were incubated with compound samples in the presence of EC80 forskolin to induce response. Media was aspirated from cells and replaced with 15 uL 2:1 HBSS/10 mM Hepes: cAMP XS+Ab reagent. Intermediate dilution of sample stocks was performed to generate 4× sample in assay buffer containing 4× EC80 forskolin. […] Finally assay vehicle concentration was 1%. After sample incubation assay signal was generated through incubation with 20 uL cAMP XS+ED/CL lysis cocktail for one hour followed by incubation with 20 uL cAMP XS+EA reagent for three hours at room temperature. Microplates were read following signal generation with a PerkinElmer Envision Instrument for chemiluminescent signal detection. Compound activity was analyzed using CBIS data analysis suite. For Gi agonist mode, percentage activity is calculated using the following formula: % Activity=100%×(1−(mean RLU of test sample−mean RLU of MAX control)/(mean RLU of vehicle control−mean RLU of MAX control)). […] Each measurement was done in duplicate.
DiscoverX HitHunter cAMP G-protein activation assay. […] Freezer stock cAMP Hunter cell lines were expanded, then seeded in a total volume of 20 μL into white walled, 384-well microplates and incubated at 37° C. prior to testing. For agonist determination, cells were incubated with compound samples in the presence of EC50 forskolin to induce response. Media was aspirated from cells and replaced with 15 μL 2:1 HBSS/10 mM Hepes: cAMP XS+Ab reagent. Intermediate dilution of sample stocks was performed to generate 4× sample in assay buffer containing 4× EC80 forskolin. […] Finally assay vehicle concentration was 1%. After sample incubation assay signal was generated through incubation with 20 μL cAMP XS+ED/CL lysis cocktail for one hour followed by incubation with 20 μL cAMP XS+EA reagent for three hours at room temperature. Microplates were read following signal generation with a PerkinElmer Envision Instrument for chemiluminescent signal detection. Compound activity was analyzed using CBIS data analysis suite. For Gi agonist mode, percentage activity is calculated using the following formula: % Activity=100%×(1−(mean RLU of test sample−mean RLU of MAX control)/(mean RLU of vehicle control−mean RLU of MAX control)). […] Each measurement was done in duplicate.

[7] = test system: CFA mice; assay: Complete Freund's Adjuvant (CFA) inflammatory pain model, Hargreaves test; conditions: mouse, in vivo
Procedure: The CFA model of chronic inflammation was induced as described previously (96). Briefly, CFA (Sigma) was diluted 1:1 with saline and vortexed for 30 minutes. When fully suspended, we injected 20 μL of CFA into one hindpaw. Heat thresholds were measured before the injection (baseline) and 3 days after using the Hargreaves test.
The CFA model of chronic inflammation was induced as described previously (100). Briefly, CFA (Sigma) was diluted 1:1 with saline and vortexed for 30 minutes. When fully suspended, we injected 20 μL of CFA into one hindpaw. Heat thresholds were measured before the injection (baseline) and 3 days after using the Hargreaves test.

[8] = test system: SNI mice; assay: Spared-nerve injury (SNI) model of neuropathic pain, von Frey mechanical thresholds; type: in vivo
Procedure: Spared-nerve injury (SNI) model of neuropathic pain. Under isoflurane anesthesia, two of the three branches of the sciatic nerve were ligated and transected distally, leaving the sural nerve intact. Behavior was tested 7 to 14 days after injury and in situ hybridization was performed one week post-injury.

[9] = target: T2, ALPHA-2A ADRENERGIC RECEPTOR; assay: Arrestin recruitment; type: cell-based; conditions: Tables 7-9
[10] = Pharmacokinetics in mice (plasma, brain, CSF); type: in vivo; conditions: I.P. 10 mg/kg
Procedure: Pharmacokinetics. Pharmacokinetic experiments were performed by Bienta (Enamine Biology Services) in accordance with Enamine pharmacokinetic study protocols and Institutional Animal Care and Use Guidelines (protocol number 1-2/2020). […] In each compound study, nine time points (5, 15, 30, 60, 120, 240, 360, 480 and 1440 min) were collected, each of the time point treatment group included 3 animals. There was also a control group of one animal. In the ‘9087, ‘7075, ‘4622 studies, male C57BL/6N mice were used, for PS75 CD-1 mice, and for ‘2998 male Balb/cAnN mice. For all compound studies the animals were randomly assigned to the treatment groups before the pharmacokinetic study; all animals were fasted for 4 h before dosing. For injections, ‘9087 was dissolved in Captisol—water (40%:60%, w/v), ‘4622 was dissolved in a 20% Kolliphor HS—physiological saline solution, and ‘7075, PS75, and ‘2998 were dissolved in a 20% 2-HPBCD—aqueous solution. The batches of working formulations were prepared 10 minutes prior to the in vivo study.
(§1) Mice were injected i.p. with 2,2,2-tribromoethanol at 150 mg/kg prior to drawing CSF and blood. CSF was collected under a stereomicroscope from cisterna magna using 1 mL syringes. Blood collection was performed from the orbital sinus in microtainers containing K3EDTA. Animals were sacrificed by cervical dislocation after the blood samples collection. Blood samples were centrifuged 10 min at 3000 rpm. Brain samples (right lobe) were weighed and transferred into 1.5 ml tubes. All samples were immediately processed, flash-frozen and stored at −70° C. until subsequent analysis.
Plasma samples (40 μL) were mixed with 200 μL of internal standard (IS) solution. After mixing by pipetting and centrifuging for 4 min at 6000 rpm, 4 μL of each supernatant was injected into the LC-MS/MS system. Solutions of internal standards were used to quantify compounds in the plasma samples. […] After this, the samples were centrifuged for 4 min at 14,000 rpm, and supernatant was injected into LC-MS/MS system. CSF samples (2 μL) were mixed with 40 μL of an internal stock solution. After mixing by pipetting and centrifuging for 4 min at 6,000 rpm, 5 μL of each supernatant was injected into LC-MS/MS system.
(§2) Analyses of plasma, brain and CSF samples were conducted at Enamine/Bienta. The concentrations of compounds in plasma and brain samples were determined using high performance liquid chromatography/tandem mass spectrometry (HPLC-MS/MS). Data acquisition and system control was performed using Analyst 1.5.2 software (AB Sciex, Canada). […] Pharmacokinetic data analysis was performed using noncompartmental, bolus injection or extravascular input analysis models in WinNonlin 5.2 (PharSight).
as §1, with “mL” for “ml”
as §2
Additional pharmacokinetic experiments were performed by Sai Life Sciences (Hyderabad, India) in accordance with the Sai Study Protocol SAIDMPK/PK-22-04-0340. […] Testing was done in C57BL/6 mice.

[11] = target: α2AAR F427^7.39 mutant (Homo sapiens (Human), UniProt P08913, F427A); assay: Gi activation (BRET) at α2AAR F427^7.39 mutant; type: cell-based
Sequence of α2AAR F427^7.39 mutant (P08913 whole entry F427A): as the sequence (P08913 whole entry) above, with F427A counted along it
Procedure: (§3) Investigating the sensitivity of selected ligands to the receptor mutants α2AAR-D128^3.32A, α2AAR-D128^3.32T, α2AAR-D128^3.32L, α2AAR-S215^5.42A, α2AAR-Y409^6.55A, α2AAR-Y409^6.55T, α2AAR-Y409^6.55F, α2AAR-F427^7.39F, α2AAR-Y431^7.43A, and α2AAR-Y431^7.43F was determined by monitored G protein stimulation as described above transfecting the appropriate receptor together with Gαi1-RLucII and Gβ1/Gγ1-GFP10. […] Three to ten experiments were done in duplicate.
(§4) The sensitivity of selected ligands to the receptor mutants α2AAR-D128^3.32A, α2AAR-D128^3.32T, α2AAR-D128^3.32L, α2AAR-S215^5.42A, α2AAR-Y409^6.55A, α2AAR-Y409^6.55T, α2AAR-Y409^6.55F, α2AAR-F427^7.39F, α2AAR-Y431^7.43A, and α2AAR-Y431^7.43F was monitored by G protein activation as described above transfecting the appropriate receptor together with Gαi1-RLucII and Gβ1/Gγ2-GFP10. […] Similarly, the effect of the α2AAR-D128^3.32A, α2AAR-S215^5.42A, α2AAR-Y409^6.55A, α2AAR-Y409^6.55F, α2AAR-F427^7.39F, α2AAR-Y431^7.43A, and α2AAR-Y431^7.43F mutations on arrestin recruitment was evaluated as described above transfecting the appropriate receptor together with CAAX-rGFP, GRK2 and β-arrestin-2-RLucII. Data was analyzed as ligand induced changes in BRET compared to vehicle (deltaBRET). Three to seven experiments were done in duplicate.

[12] = target: α2AAR-Y431^7.43A/F (Homo sapiens, UniProt P08913, Y431A); assay: Gi activation (BRET) at α2AAR Y431^7.43 mutants; type: cell-based
Procedure: as §3, §4

[13] = Gi recruitment, Table 6, read-out: EC50
[14] = Gi recruitment, Table 6, read-out: Emax (%)
[15] = mean ± SEM (Table 3), read-out: Ki
[16] = Gi EC50 ± SE, BRET biosensor, human α2AAR (Table 3)
[17] = Gi recruitment, Tables 7-9, read-out: G protein Emax (%)
[18] = Gi recruitment, Tables 7-9, read-out: G protein EC50

T1 sequence (P08913 whole entry): as the sequence (P08913 whole entry) above

Clc1ncc2ccccc2c1Nc1ccncc1 [Compound 1718, 3-chloro-N-(pyridin-4-yl)isoquinolin-4-amine]
Emax ([1]; read-out: β-Arr-2 Emax): < 5% | functional classification (agonist / weak agonist) ([2]; Gi recruitment): agonist | EC50 [2, 13]: 8 nM | Emax [2, 14]: 45% | Ki [3, 15]: 22 ± 6.7 nM | EC50 [4, 16]: 14 nM | Emax ([4]; read-out: Gi Emax ± SEM): 47%

Cc1cccc([C@H](C)c2cnc[nH]2)c1C [DEX, dexmedetomidine, reference compound]
Emax ([1]; read-out: β-arrestin-2 Emax): 60 ± 3% | Motor impairment / sedation in rotarod test [5]: significant impairment and complete sedation at higher doses | Emax [6]: 76 ± 3% | Emax ([4]; read-out: Gαi Emax): 105 ± 4%

C1=C(c2ccc3c(c2)CC3)CNCC1 [Compound 4622, 5-(Bicyclo[4.2.0]octa-1,3,5-trien-3-yl)-1,2,3,6-tetrahydropyridine]
Thermal latencies / anti-hyperalgesic effect in CFA model [7]: exhibited anti-hyperalgesic effects | Effect of atipamezole on the agonist's effect in SNI mice ([8]; atipamezole 2 mg/kg, 15 minutes prior): reversed by atipamezole | Mechanical thresholds / anti-allodynic effect in SNI mice ([8]; systemic injection): exhibited anti-allodynic effects | Emax ([1]; read-out: β-arrestin-2 Emax): < 5% | EC50 [2]: 45 nM | Emax [2, 17]: 76% | Motor impairment / sedation in rotarod test [5]: slight motor impairment | Emax [9]: < 5% | Ki ([3]; mean ± s.e.m., read-out: Ki for α2AAR): 12 ± 3.6 nM | half-life ([10]; C57BL/6N ('9087, '7075, '4622), CD-1 (PS75), mouse, CSF, ip, read-out: T ½ CSF (converted)): 14.5 h | AUC Brain [10]: 1160000 ng·min/mL | AUC CSF [10]: 18400 ng·min/mL | Cmax Brain [10]: 16200 ng/mL | Cmax CSF [10]: 44.2 ng/mL | half-life ([10]; mouse, brain, ip, read-out: T ½ Brain (converted)): 0.88 h | AUC ([10]; mouse, plasma, ip): 567 ng·h/mL | Cmax ([10]; mouse, plasma, ip): 620 ng/mL | half-life ([10]; mouse, plasma, ip, read-out: T ½ Plasma (converted)): 1.01 h | Gi activity at F427^7.39 substitution [11]: eliminated | EC50 ([4]; Gαi EC50, BRET biosensor, HEK293T, human α2AAR): 9.7 ± 2.4 nM | Emax ([4]; read-out: Gαi Emax): 74 ± 4%

O=C1NCCc2c(Nc3ccncc3)cccc21 [PS86]
functional classification (agonist / weak agonist) ([2]; Gi recruitment): agonist | EC50 [2, 13]: 3200 nM | Ki [3, 15]: 1200 ± 560 nM | EC50 [4, 16]: 3400 nM | Emax ([4]; read-out: Gi Emax ± SEM): 91%

Clc1cccc(Cl)c1N=C1NCCN1 [CLON, clonidine, reference compound]
Emax ([1]; read-out: β-arrestin-2 Emax): 41 ± 3% | Emax ([4]; read-out: Gαi Emax): 115 ± 4%

NC[C@H](O)c1ccc(O)c(O)c1 [norepinephrine]
Gi signaling at Y431^7.43A [12]: essentially eliminated

Brc1c(NC2=NCCN2)ccc2nccnc12 [Brimonidine, brimonidine, reference compound]
Emax [6]: 107 ± 7%

c1ccc(Nc2cncc3ccccc23)cc1
Ki [3, 15]: > 10000 nM | Emax ([4]; read-out: Gi Emax @ 0.1 mM): 57%

c1cc(Nc2ccncc2)c2sccc2c1 [Compound 4914]
Emax ([1]; read-out: β-Arr-2 Emax): < 5% | EC50 [2, 13]: 6.8 nM | Emax [2, 14]: 76% | Ki [3, 15]: 7.2 ± 1 nM | EC50 [4, 16]: 9.1 nM | Emax ([4]; read-out: Gi Emax ± SEM): 77%

COc1ccc2cccc(Nc3ccncc3)c2c1 [PS71]
Emax ([1]; read-out: β-Arr-2 Emax): < 5% | functional classification (agonist / weak agonist) ([2]; Gi recruitment): agonist | EC50 [2, 13]: 89 nM | Ki [3, 15]: 240 ± 120 nM | Fold reduced Gi activity compared to ‘5879 [4]: 15 fold and 16 fold | EC50 [4, 16]: 100 nM | Emax ([4]; read-out: Gi Emax ± SEM): 85%

Nc1ccc(-c2cc3cn[nH]c3cc2F)cn1 [TP75, 5-(6-Fluoro-1H-indazol-5-yl)pyridin-2-amine]
EC50 [2, 18]: 89 nM | Emax [2, 17]: 18% | Emax [9]: < 10%

c1ccc2c(Oc3ccncc3)cccc2c1
Ki [3, 15]: 1800 ± 730 nM | Emax ([4]; read-out: Gi Emax @ 0.1 mM): 43%

O=C1CCc2c(cccc2Nc2ccncc2)N1 [PS84]
functional classification (agonist / weak agonist) ([2]; Gi recruitment): agonist | EC50 [2, 13]: 450 nM | Ki [3, 15]: 500 ± 87 nM | EC50 [4, 16]: 840 nM | Emax ([4]; read-out: Gi Emax ± SEM): 37%

Nc1ccc(Nc2cncc3ccccc23)cc1
Ki [3, 15]: 4600 ± 2100 nM | Emax ([4]; read-out: Gi Emax ± SEM): < 5%

c1ccc2c(Nc3ccncc3)ncnc2c1
Ki [3, 15]: 6600 ± 1800 nM | Emax ([4]; read-out: Gi Emax ± SEM): < 5%

Nc1ccc(-c2ccc3[nH]ncc3c2F)cn1 [TP84, 5-(4-Fluoro-1H-indazol-5-yl)pyridin-2-amine]
EC50 [2, 18]: 1100 nM | Emax [2, 17]: 49% | Emax [9]: < 10%

C=C1CCc2cc(C3=CCCNC3)ccc21 [TP105, 5-(1-Methylene-2,3-dihydro-1H-inden-5-yl)-1,2,3,6-tetrahydropyridine]
Emax [2, 17]: < 5% | Emax [9]: < 5%

C=C(c1ccc(C(F)(F)F)cc1)c1cc(N)ccn1 [TP101, 2-(1-(4-(Trifluoromethyl)phenyl)vinyl)pyridin-4-amine]
Emax [2, 17]: < 5% | Emax [9]: < 5%

Nc1ccc(-c2cc3cn[nH]c3cc2Cl)cn1 [TP74, 5-(6-Chloro-1H-indazol-5-yl)pyridin-2-amine]
EC50 [2, 18]: 200 nM | Emax [2, 17]: 64% | Emax [9]: < 10%

From patent US20250032476A1, “ALPHA-2A ADRENERGIC RECEPTOR MODULATORS AND USES THEREOF” (The Regents of the University of California, priority 2021, published 2025)
